In patent publication US12663426B2, “Method and composition for measurement of nitric oxide” (The University of Chicago, priority 2019, dated 2026):
Where two headings read alike, the source gives them in different places.

Experiments:
[1] = tested on: NOS3; assay: Sub-cellular nitric oxide quantification (rate of NO production, in-cell calibration); assay type: cell-based; conditions: T-47D cells, 1 μM thapsigargin
Procedure: (§1) Sub-cellular nitric oxide quantification. […] (FIG. 16).
After characterizing NO releasing profile of DEA NONOate, cellular NO production was compared to NO released from DEA-NONOate. […] As expected G/B intensity increases over time and the rate of increase is proportional to DEA-NONOate concentration. Then 1 μM thapsigargin was added to get the initial rate of NO production at the plasma membrane.
Note this only applies to the initial phase of DAR activation where [DAR] can be considered as constant. From the predicted [NO] from DEA-NONOate, the tested concentration of NONOate, the first 30 s [NO] increases with t. […]
Using the calibration curve, the initial G/B rates from thapsigargin treated cells is plugged in and the plasma membrane NO production was measured to be 576±61 nM/s (FIG. 3e).
Next, in order to measure the relative activities of NOS3 at the plasma membrane and the TGN, a method was developed to quantify sub-cellular NO generated due to NOS3 activity. […] As the effective concentration of NO at any time, [NO]eff, changes with time, NOS3 activity is best quantified by the rate of NO production. […]
An in-cell calibration protocol was developed to measure the rate of NO production for various concentrations of DEA-NONOate using NOckout probes. […] NOckout^PM labeled cells was then treated with 1 μM thapsigargin and measured the rate of NO production given by the increasing G/B ratio. […]

[2] = biological target: T1, NOS2 (Mus musculus, UniProt P29477); assay: In cellulo specificity of NOckout to NO in LPS primed J774A.1 cells; assay type: cell-based; conditions: J774 cells, LPS; VAS2870 10 μM, ABAH 50 μM
T1 construct: J774A.1 cells were treated with 1 μg/mL LPS for 12 h prior to the addition of NOckout; endogenous in cells; host or cells: J774A.1 macrophages primed with LPS
Procedure: Pharmacological inhibition: Pharmacological inhibition of different enzymes were performed by employing known inhibitors. […] Cells were bathed in inhibitors 1 h prior to the addition of NOckout probes during the specificity experiment performed in J774A.1 cells.
In cellulo specificity of NOckout to NO: In cellulo specificity of the NOckout probe towards NO^− was validated in J774A.1 cells. […] J774A.1 cells were treated with 1 μg/mL LPS for 12 h prior to the addition of NOckout (500 nM in HBSS) either in the presence or in absence of specific inhibitors. LPS addition was employed to induce the expression of NOS2NOX and MPO. […] After 90 minutes of incubation with the NOckout culture media was removed from the cells and three washes were performed using HBSS to remove extracellular NOckout before proceeding to the fluorescence imaging. […]
The in-cell specificity of NOckout can be evaluated by measuring the contribution of the reactive species produced by NOX, MPO and NOS2 to the observed fold change in G/R ratio upon LPS stimulation. […] As NOS2 activity is not pan-endosomal, specificity is given by quantifying the percentage of endosomes that show G/R values higher than the mean G/R value in endosomes of unstimulated, NOS2 inhibited cells, as the latter corresponds to basal endosomal NO levels (FIG. 6c).

[3] = Decomposition / NO release of DEA NONOate; assay type: physicochemical
Source text: as §1
Additionally, DEA-NONOate concentration follows first order decay and can be described with initial DEA-NONOate concentration (indicated by [NONOate]0).
Next, in order to measure the relative activities of NOS3 at the plasma membrane and the TGN, a method was developed to quantify sub-cellular NO generated due to NOS3 activity. […] As the effective concentration of NO at any time, [NO]eff, changes with time, NOS3 activity is best quantified by the rate of NO production. Therefore, the decomposition rate constant (k1 sec^−1) of DEA-NONOate was first measured from its UV absorbance at 250 nm, to obtain [NO]eff over time in solution for fixed DEA-NONOate concentrations (FIG. 17a, Methods) (Ramamurthi, A. & Lewis, R. S. Measurement and modeling of nitric oxide release rates for nitric oxide donors. Chem. Res. Toxicol. 10, 408-413 (1997)). […]
In vitro fluorescence measurements: All fluorescence studies were carried out on a Fluoromax-4 (Horiba Scientific, Japan) spectrophotometer. […] Fluorescence emission spectra were collected in the range of 560-620 nm (slit width=2 nm) for DAR and 655-700 nm (slit width=2 nm) for A647N. […] Fluorescence signal from NOckout. […] was recorded sequentially in the DAR (G) and A647N (R) channels before and after the addition of DEANONOate (30 μM) at timed intervals (30 s). […]

[4] = 37° C., 100 mM phosphate buffer (pH 7.4); cited from earlier work
[5] = biological target: T2, murine TLR-9 (Mus musculus, UniProt Q9EQU3); assay: Endosomal NO in primary mouse microglia with NOckout^mCpG; assay type: cell-based; conditions: primary microglia, versus NOckout^mCpG, n=100 endosomes
T2 construct: endogenous in cells; host or cells: primary microglia from C57BL/6 mice
T2 sequence (Q9EQU3 26-1032): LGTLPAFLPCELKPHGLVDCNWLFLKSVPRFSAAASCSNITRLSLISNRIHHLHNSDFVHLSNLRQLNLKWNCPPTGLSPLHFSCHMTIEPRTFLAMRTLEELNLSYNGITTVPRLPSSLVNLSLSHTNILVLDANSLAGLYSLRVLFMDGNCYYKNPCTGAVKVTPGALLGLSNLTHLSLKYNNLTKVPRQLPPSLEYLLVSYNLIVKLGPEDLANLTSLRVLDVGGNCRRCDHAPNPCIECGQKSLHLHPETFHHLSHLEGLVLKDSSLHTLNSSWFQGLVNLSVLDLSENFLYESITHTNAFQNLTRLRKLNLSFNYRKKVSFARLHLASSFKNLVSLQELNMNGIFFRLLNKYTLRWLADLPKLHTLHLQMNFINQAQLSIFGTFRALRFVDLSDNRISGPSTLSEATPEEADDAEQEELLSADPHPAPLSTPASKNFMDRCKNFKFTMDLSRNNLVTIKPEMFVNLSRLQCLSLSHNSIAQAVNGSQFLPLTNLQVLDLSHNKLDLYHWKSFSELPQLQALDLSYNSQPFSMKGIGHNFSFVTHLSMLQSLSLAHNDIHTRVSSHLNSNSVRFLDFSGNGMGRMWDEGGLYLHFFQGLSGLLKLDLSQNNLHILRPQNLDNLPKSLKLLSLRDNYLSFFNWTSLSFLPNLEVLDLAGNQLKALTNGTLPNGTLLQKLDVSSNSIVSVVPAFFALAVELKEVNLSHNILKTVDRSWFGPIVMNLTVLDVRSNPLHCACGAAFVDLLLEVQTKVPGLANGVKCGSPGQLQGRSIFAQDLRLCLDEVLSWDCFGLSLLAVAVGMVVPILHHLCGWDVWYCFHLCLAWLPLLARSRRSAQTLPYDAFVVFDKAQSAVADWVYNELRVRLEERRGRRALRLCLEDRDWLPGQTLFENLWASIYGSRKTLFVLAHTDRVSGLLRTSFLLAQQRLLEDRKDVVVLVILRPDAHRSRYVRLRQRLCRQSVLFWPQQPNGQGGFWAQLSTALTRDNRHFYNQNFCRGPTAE
Source text: Image analysis: A MATLAB based program called Findosome was used to calculate the (G/R) values of individual endosomes from the acquired images. Maximum Z-projected images created using Fiji (NIH) were fed to Findosome to pick endosomal compartments as ROI corresponding to individual endosomes based on the A647 channel intensity. For each ROI, the program calculates fluorescence intensities both in the normalizing channel (A647, R) as well as in the DAR (G) channel. The results were exported as an excel file. From the results, (G/R) value for individual endosomes can be calculated. Phagosomal (G/R) values from the zebrafish microglia are calculated using Fiji software. Images were imported to Fiji and maximum Z-projected images were created. ROI were manually drawn around clearly identifiable phagosomes using the normalizing channel A647 intensity. Fluorescence intensities in A647 and DAR channels were calculated. G/R values are either represented as heat map images using Fiji or as bar graph using Origin software. Intracellular measurements of (G/R) values was performed in GFP colocalized microglia. For (G/R) ratio quantification experiments, only those vesicles that are present in both green (G) and red (R) channels were considered. […]

[6] = tested on: TNF-α; assay: TNF-α quantification by ELISA in J774A.1 cells; assay type: cell-based; conditions: 500 nM, 2 h
Procedure: TNF-α Quantification: To quantify the immunogenicity NOckout probes and the corresponding immunogen alone, ELISA for TNF-α was performed in J774A.1 cells. Briefly, J774A.1 cells cultured in DMEM were incubated with 500 nM NOckout sensors, CpG nucleotides, RNA, or LPS at 37° C. for 2 h. Postincubation 100 μL of extracellular medium from the culture was used to perform TNF-α quantification using ELISA kit (Cayman, catalog number 500850) according to manufacturers instructions. The calibration curve for TNF-α was generated using recombinant. TNF-α as per the vendor's instructions.
We treated J774A.1 cells with each PAMP motif, for example mCpG, zCpG, RNA, or iRNA and their corresponding NOckout display vairent and quantified TNFα in the extracellular milieu by enzyme-linked immunisorbent assay (ELISA) (FIG. 47). […] This is because, beyond 2 h in cell culture, the probe is degraded in lysosomes, likely by DNase II, NOckout probes therefore can reliably report on endosomal NO levels only up to 2 h postinternalization (FIG. 45).

**Q.** With C/C=C(/C)C(=O)O[C@H]1C(C)=C2[C@H]([C@@H]1OC(=O)CCCCCCC)[C@@](C)(OC(C)=O)C[C@H](OC(=O)CCC)[C@@]1(O)[C@H]2OC(=O)[C@@]1(C)O [thapsigargin] as the compound, how does the “rate of NO production at the plasma membrane” value ([1]; NOckout^PM) read?
**A.** 576 ± 61 nM/s

**Q.** What about the “initial rate of NO production at the TGN” value ([1]; NOckout^TGN) of the same compound?
**A.** 74 ± 41 nM/s

**Q.** For c1ccc(Cn2nnc3c(Sc4nc5ccccc5o4)ncnc32)cc1 [VAS2870], which “NO signal of NOckout with inhibitor” value [2] is on record?
**A.** did not reduce NO signal

**Q.** What does the source list for CCN(CC)/[N+]([O-])=N/O.CCNCC [DEA NONOate, Diethylamine NONOate]?
**A.** k1, decomposition rate constant ([3]; calculated from UV absorption at 250 nm): 0.00131 s⁻¹; half-life ([3]; pH 7.4 at 25° C.): about 9 min; half-life [4]: 2 min

**Q.** For “NOckout^mGpC: control of NOckout^mCpG with non-immunostimulatory GpC motifs (TGCTGTCTGGTGTGCAGTGTTGATTTTCCATGAGCTTCCTGACCTT; DNA nanodevice strand, phosphorothioate ODN overhang and dyes, pattern not given here)”, which “reduction of NO-rich endosomes” value [5] is on record?
**A.** 40%

**Q.** And the “TNF-α in the extracellular milieu” value [6]?
**A.** dramatic reduction in TNF-α levels
